Laboratory results reported in US8722714B2, “Oxazolidine derivatives as NMDA antagonists” (The Honk Kong University of Science and Technology, priority 2008, dated 2014).

Tests used:
[1] = system: rat primary cortical neurons; assay: Neuron survival assay against NMDA insult (LDH release); format: cell-based; conditions: NMDA 20 μM; for protection of rat primary cortical neurons from NMDA insults (LDH release, fold change vs DMSO): compounds 10-30 μg/ml, 11 DIV; for cell death (LDH release, cell cytotoxicity vs DMSO): compound 10 μg/mL, DIV 11
Method: Primary cortical and hippocampal neurons were prepared from embryonic day 18 (E18) Sprague-Dawley rats. Neurons were plated on 24-well plate (TPP, Corning) at a density of 2×10^5 cells per well using Neurobasal medium (Invitrogen) supplemented with 2% B27 (Invitrogen). Neurons at 11-12 days in vitro (12 DIV) were subjected to drug treatment. Neurons were pretreated with the test compound for 2 hours prior to NMDA treatment. 0.1 μM (+)-MK-801 Hydrogen Maleate (Sigma) was added as a positive control. Briefly, the neurons were rinsed with Locke's solution (5 mM potassium chloride, 128 mM sodium chloride, 2.7 mM calcium chloride, 1 mM di-sodium hydrogen orthophosphate, 5 mM HEPES and 10 mM glucose in Milli-Q water) without Mg^2+, and incubated with addition of glycine (10 μM) for 15 minutes. After the incubation, the neurons were co-treated with the test compound (dissolved in Locke's plus glycine solution) and NMDA (20 μM; Sigma) for 20 minutes. Neurons were rinsed with Locke's plus Mg^2+ and replaced with fresh growth medium. The cell death was assayed and quantified using the lactate dehydrogenase release assay (Roche) after 24 hours.
Embryonic rat cortical neurons (11 DIV) were treated with NMDA (20 μM) in the absence or presence of the LC series of compounds (10-30 μg/ml). […] LDH release in the medium after overnight incubation was measured and fold change was calculated when compared to the solvent control, DMSO.
Embryonic rat cortical neurons (DIV 11) were treated with NMDA (20 μM) in the absence or presence of LC-01 or LC-02 (μg/mL). LDH release in the medium after overnight incubation was measured and cell cytotoxicity was calculated in percentage when compared to the solvent control, DMSO.
Embryonic rat cortical neurons (DIV 11) were treated with NMDA (20 μM) in the absence or presence of LC-06 (μg/mL). LDH release in the medium after overnight incubation was measured and cell cytotoxicity was calculated in percentage when compared to the solvent control, DMSO.
Embryonic rat cortical neurons (11 DIV) were treated with NMDA (20 μM) in the absence or presence of LC-24 or LC-25 (μg/mL). LDH release in the medium after overnight incubation was measured and cell cytotoxicity was calculated in percentage when compared to solvent control (DMSO).

NMDA receptor = assay: Whole-cell patch clamp of NMDA-induced current in hippocampal neurons; format: cell-based, rat; conditions: compound 500 uM co-applied with NMDA 200 uM
Method: Hippocampal neurons were prepared from embryonic day 18 Sprague-Dawley rats. After the hippocampus had been removed from the brain, isolated cells were plated onto Poly d-Lysine (PDL) (P0899, Sigma)-coated 35 mm dishes (153066, NUNC) at a density of 3×10^5 cell per plate using Neurobasal Medium (NB) (21103-049, Gibco) with B27 supplement (17504-044, Gibco), penicillin/streptomycin (15140, Gibco) and 1 mM L-glutamine (25030, Gibco). The cell culture was incubated at 37° C. in a humidified atmosphere of 5% CO2 in air. Half of the medium was changed with NB, B27 and 50 μM L-glutamine every 2 to 3 days. On day 12 in vitro (12 DIV), whole-cell patch clamp was performed. The internal solution contained 120 mM cesium chloride, 20 mM tetraethylammonium chloride, 2 mM magnesium chloride, 1 mM calcium chloride and 10 mM HEPES (pH 7.2). The external solution contained 137 mM sodium chloride, 1 mM sodium bicarbonate, 0.34 mM sodium phosphate dibasic, 5.37 mM potassium chloride, 0.44 mM potassium phosphate monobasic, 2.5 mM HEPES (pH 7.4) and 22.2 mM glucose. Samples mixed with 50 μM NMDA (M3262, Sigma) were arranged in linear array of up to 8 individual controlled pipes (List Medical, Germany) which were connected to solution reservoirs. Memantine (10 μM, M9292, Sigma) was used as a positive control. Pipettes were fire-polished to produce a pipette resistance of 3-5 MΩ. Holding potential of patched cells was kept at −80 mV and currents were recorded using Axopatch-200B amplifier (Axon Instruments, USA). Tetrodotoxin (5 μM) and bicuculline methiodide (20 μM) (0109, Tocris) were present in the bath solution to block synaptic transmission mediated by voltage-gated sodium channels and […], respectively. Data was analyzed by pClamp9 software and percentage of inhibition on NMDA-induced current was represented in comparison to solvent control.
The NMDA receptor is a gated ion channel, which allows inflow of current during a nerve impulse. Antagonists to the receptor would prevent the inflow of current.
In FIG. 1A, hippocampal neurons from embryonic day 18 rats were isolated, trypsinized, plated onto 35-mm plates at a density of 3×10^4 cells/plate and cultured in Neurobasal medium (NB) supplemented with B27 nutrient. Rat hippocampal neurons (10-14 DIV) were treated with NMDA (50 μM) in the absence or presence of the compound LC-02 (10 μg/mL). Data is presented as % of NMDA-induced current. DMSO is the solvent control.
(§1) In FIG. 1B, NMDA antagonistic effect of LC-02 on current responses of a single hippocampal neuron. NMDA (200 uM) was applied for 2.5 sec every 30 sec but these inter-response intervals have been deleted from the above figure for a better resolution of the kinetics of individual responses (blank space in trace). LC-02 (500 uM) was co-applied with NMDA.
In FIG. 1C, effects of LC-02 on pooled NMDA current responses. Normalized peak and plateau currents are shown in the absence (DMSO) and presence of LC-02.
as §1, with “8, (a)” for “1B,”, “LC-06” for “LC-02”, “NMDA. […] (b) Effects of LC-06 on pooled NMDA current responses. Normalized peak and plateau currents are shown in the absence (DMSO) and presence of LC-06.” for “NMDA.”
as §1, with “9, (a)” for “1B,”, “LC-24” for “LC-02”, “NMDA. […] (b) Effects of LC-24 on pooled NMDA current responses. Normalized peak and plateau currents are shown in the absence (DMSO) and presence of LC-24. […]” for “NMDA.”

Structure (SMILES) | protection of rat primary cortical neurons from NMDA insults (LDH release, fold change vs DMSO) [1] | cell death (LDH release, cell cytotoxicity vs DMSO) [1] | pooled NMDA current responses (normalized peak and plateau currents) (NMDA receptor; vs DMSO, n=6) | recovery of NMDA-induced current after compound was washed out (NMDA receptor; single hippocampal neuron)
CCC(C)[C@@H]1N[C@H](CC)OC1(CC)CC (stereo partly shown) [LC-10] | weaker neuroprotective effects |  |  | 
CCCC1(CCC)O[C@@H](CC)N[C@H]1C(C)CC (stereo partly shown) [LC-14] | weaker neuroprotective effects |  |  | 
CC[C@@H]1N[C@@H](CC(C)C)C(CC)(CC)O1 [LC-01] | significantly protected | cell death was markedly reduced |  | 
CCCC1(CCC)O[C@@H](c2ccccc2)N[C@H]1C(C)CC (stereo partly shown) [LC-16] | weaker neuroprotective effects |  |  | 
CCC[C@@H]1N[C@@H](C(C)CC)C(CC)(CC)O1 (stereo partly shown) [LC-11] | weaker neuroprotective effects |  |  | 
CCC[C@H]1N[C@@H](Cc2ccccc2)C(CC)(CC)O1 [LC-25] | significantly protected | cell death was markedly reduced | significantly inhibits NMDA-induced current | Partial recovery of NMDA-induced current
CCC[C@H]1N[C@@H](C(C)CC)C(CC)(CC)O1 (stereo partly shown) [LC-12] | weaker neuroprotective effects |  |  | 
CCC(C)[C@@H]1N[C@@H](CC)OC1(CC)CC (stereo partly shown) [LC-09] | weaker neuroprotective effects |  |  | 
CCC[C@H]1N[C@@H](C(C)CC)C(CCC)(CCC)O1 (stereo partly shown) [LC-15] | weaker neuroprotective effects |  |  | 
